The text below walks through data of US11897868B2, “Heterocyclic inhibitors of PCSK9” (CARDIO THERAPEUTICS PTY LTD, priority 2017, dated 2024).

In assay [1] the target is T1, PCSK9 and the LDL receptor (Homo sapiens, UniProt Q8NBP7).
T1 construct: purchased CircuLex CY-8150
As to the kind of experiment: CircuLex PCSK9-LDLR in vitro binding assay. To be noted: His-tagged PCSK9 wild type, 8 point concentration curves, absorbance 450 nm and 540 nm; for IC50: read-out: Inhibition of PCSK9-LDLR binding. The method, then: Compounds were assayed for their ability to inhibit the binding between PCSK9 and the LDL receptor using a CircuLex PCSK9-LDLR in vitro binding assay kit (Catalog #CY-8150. The procedure employed the reagents and buffers included in the kit as follows.
88 μL of 1× reaction buffer were placed into each well. 5 μL of test compounds in 20% DMSO were added into each well. 10 mM solutions of test compounds in DMSO were diluted by 3-fold series to give 8 point concentration curves. The compounds were then diluted 20-fold with the reaction buffer. To each well was then added 7 μL of His-tagged PCSK9 wild type solution (1000 ng/mL) into each well. The plate was then covered with a plate sealer and incubated at room temperature for 3 hours, shaking at 300 rpm on an orbital microplate shaker. The test solutions were washed 4 times with 350 μL wash buffer. 100 μL of biotinylated anti-His-tag monoclonal antibody was added to each well. The plate was covered with a plate sealer, and incubated at room temperature for 1 hour, shaking at 300 rpm. The test solutions were washed 4 times with 350 μL wash buffer. 100 μL of HRP-conjugated streptavidin was added to each well. The plate was covered with a plate sealer, and incubated at room temperature for 20 min, shaking at 300 rpm.
The test solutions were washed 4 times with 350 μL wash buffer. 100 μL of substrate reagent were added into each well. The plate was covered with a plate sealer, and incubated at room temperature for 15 min, shaking at 300 rpm. Finally, 100 μL of the stop solution was added to each well in the same order as the previously added substrate reagent. Absorbance was measured at 450 nm and 540 nm and IC50 curves were plotted.

Assay [2] deals with T2, PCSK9-D374Y (Homo sapiens, UniProt Q8NBP7, D374Y).
T2 construct: host or cells: HepG2 cells (the protein is added from outside; LDLR is endogenous)
T2 sequence (Q8NBP7 153-692 D374Y): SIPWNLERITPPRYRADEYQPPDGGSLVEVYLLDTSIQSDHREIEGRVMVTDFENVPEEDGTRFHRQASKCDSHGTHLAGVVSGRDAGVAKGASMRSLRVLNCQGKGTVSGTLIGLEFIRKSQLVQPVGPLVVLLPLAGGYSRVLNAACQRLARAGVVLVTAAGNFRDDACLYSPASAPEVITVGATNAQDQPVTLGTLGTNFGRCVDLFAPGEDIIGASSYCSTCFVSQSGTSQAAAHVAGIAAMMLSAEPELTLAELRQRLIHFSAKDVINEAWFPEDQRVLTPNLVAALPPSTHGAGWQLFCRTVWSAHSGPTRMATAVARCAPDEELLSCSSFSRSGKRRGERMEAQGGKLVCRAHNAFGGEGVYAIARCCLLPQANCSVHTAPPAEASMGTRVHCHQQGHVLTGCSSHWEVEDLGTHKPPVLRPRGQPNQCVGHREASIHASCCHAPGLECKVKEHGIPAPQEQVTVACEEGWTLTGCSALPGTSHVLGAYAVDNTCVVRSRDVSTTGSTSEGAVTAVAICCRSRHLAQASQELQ
T2 sequence (Q8NBP7 31-152 partner limits assumed): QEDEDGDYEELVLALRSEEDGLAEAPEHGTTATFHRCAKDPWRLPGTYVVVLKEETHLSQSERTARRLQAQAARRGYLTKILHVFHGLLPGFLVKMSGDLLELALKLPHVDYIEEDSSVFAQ
Nature of the assay: LDL uptake in HepG2 cells treated with PCSK9-D374Y (cell-based assay). To be noted: HepG2 cells with PCSK9-D374Y (2 μg/ml), 16 hours, Bodipy FL LDL 4 hours, FIG. 3. The method, then:
Human liver cells (hepG2) express the LDL receptor, which can take up fluorescent-labeled LDL into the cell. PCSK9 binds to LDL receptor, wherein the complex is internalized and degraded in the lysosome, resulting in lowered LDL uptake in hepG2 cells. Inhibition of PCSK9 […] lowers plasma (circulating) LDL-C by increasing LDL incorporation into the cell.
The cell-based assay was conducted as follows, according to the procedure outlined in Xu and Liu, J Bioequiv Availab 2013, 5, 7. […] Human liver HepG2 cells were seeded in a 96 well plate at 2×10^5 cells/ml and incubated overnight. PCSK9-D374Y (2 μg/ml) was added, along with test compounds. The wells were incubated for 16 hours, whereupon the medium was replaced with fresh medium containing 10 μg/ml Bodipy FL LDL, and the wells were incubated for a further 4 hours. The wells were washed using warm PBS and then the LDL uptake was quantified on a fluorescent plate reader at excitation/emission wavelengths of 485 and 530 nm respectively.
FIG. 2 indicates the decrease in LDL update in HepG2 cells comparing untreated and PCSK9-D374Y gain-of-function treated cells. Test compounds were measured at their ability to increase LDL uptake at concentrations of 0.1 and 1 μM and the results shown in FIG. 3.

T1 sequence (Q8NBP7 153-692): as the sequence (Q8NBP7 153-692 D374Y) above, with Y222D counted along it
T1 sequence (Q8NBP7 31-152 partner limits assumed): as the sequence (Q8NBP7 31-152 partner limits assumed) above

With `COCCN1CCN(c2cc(NC(=O)c3ccc(C)c(Oc4ccccc4)c3)cc(-n3cnc(C)c3)c2)CC1` [Example 26, N-(3-(4-(2-methoxyethyl)piperazin-1-yl)-5-(4-methyl-1H-imidazol-1-yl)phenyl)-4-methyl-3-phenoxybenzamide], in assay [1] (IC50 curves), the “Inhibition of PCSK9-LDLR binding” value is reported as “* (Starred values refer to levels of inhibition of binding by less than 35% at the highest concentration tested, due either to solubility limitations or dynamic range limitations of the assay.)”. Take `Cc1cn(-c2cc(NC(=O)c3ccc(C)c(Oc4cccc5ccncc45)c3)cc(N3CCN(C)CC3)c2)cn1` [Example 27, 3-(isoquinolin-8-yloxy)-4-methyl-N-(3-(4-methyl-1H-imidazol-1-yl)-5-(4-methylpiperazin-1-yl)phenyl)benzamide]: in assay [1], the IC50 was less than 0.1 µM. Moreover, the “increase of LDL uptake” value in assay [2] (0.1 μM compound) and in assay [2] (1 μM compound) was “Significant increases in LDL uptake equivalent to untreated cells” in each case. As for `Cc1cn(-c2cc(NC(=O)c3ccc(C)c(C(=O)c4cccc(C#N)c4)c3)cc(N3CCN(C)CC3)c2)cn1` [Example 28, 3-(3-cyanobenzoyl)-4-methyl-N-(3-(4-methyl-1H-imidazol-1-yl)-5-(4-methylpiperazin-1-yl)phenyl)benzamide], the IC50 in assay [1] lay in the range of 1 to 10 µM. With `Cc1cc(-c2cc(NC(=O)c3ccc(C)c(Nc4nccc(-c5ccc(F)cc5)n4)c3)cc(N3CCN(C)CC3)c2)on1` [Example 29, 3-((4-(4-fluorophenyl)pyrimidin-2-yl)amino)-4-methyl-N-(3-(3-methylisoxazol-5-yl)-5-(4-methylpiperazin-1-yl)phenyl)benzamide], the IC50 in assay [1] was in the range of 10 to 100 µM. As for `Cc1cn(-c2cc(CN3CCC[C@H](N)C3)cc(NC(=O)c3ccc(C)c(Oc4ccccc4)c3)c2)cn1` [Example 30, (S)—N-(3-((3-aminopiperidin-1-yl)methyl)-5-(4-methyl-1H-imidazol-1-yl)phenyl)-4-methyl-3-phenoxybenzamide], the IC50 in assay [1] lay in the range of 0.1 to 1 µM. The “increase of LDL uptake” value in assay [2] (0.1 μM compound) and in assay [2] (1 μM compound) was “Significant increases in LDL uptake equivalent to untreated cells” throughout.

As for `Cc1ccc(C(=O)Nc2cccc(N3CCN(C)CC3)c2)cc1Nc1nccc(-c2ccc(F)cc2)n1` [Example 31, 3-((4-(4-fluorophenyl)pyrimidin-2-yl)amino)-4-methyl-N-(3-(4-methylpiperazin-1-yl)phenyl)benzamide], in assay [1], the IC50 was in the range of 1 to 10 µM.
